*1 amine or outer side, *2 acyl side, *3 side chain or, on linkers, in order; H or OH if unused. Where a SMILES comes first, the peptide text is derived from it. Bridges are numbered along the chain shown (N, C = ends). [ ]: non-standard residue; d: D form. The star is where a group is joined. hPhe(3-Cl-4-CF3) = N[C@@H](CCc1ccc(C(F)(F)F)c(Cl)c1)C(=O)O; X47 = O=C([C@H](Cc1ccc(C(F)(F)F)cc1)N(CCCF)[*:1])[*:2]; NMeGly(cPent) = CN[C@H](C(=O)O)C1CCCC1; NMeD = CN[C@@H](CC(=O)O)C(=O)O; NMeL = CN[C@@H](CC(C)C)C(=O)O; Morpholide = C1CN(*)CCO1; Ac5c = NC1(C(=O)O)CCCC1; Sar = CNCC(=O)O
What was measured:
[1] = target: GDP-bound NRAS wild-type protein (Homo sapiens, UniProt P01111); assay: Binding to NRAS by surface plasmon resonance (SPR), Single Cycle Kinetics; conditions: KD ratio NRAS/KRAS, SPR
GDP-bound NRAS wild-type protein, sequence (P01111 whole entry): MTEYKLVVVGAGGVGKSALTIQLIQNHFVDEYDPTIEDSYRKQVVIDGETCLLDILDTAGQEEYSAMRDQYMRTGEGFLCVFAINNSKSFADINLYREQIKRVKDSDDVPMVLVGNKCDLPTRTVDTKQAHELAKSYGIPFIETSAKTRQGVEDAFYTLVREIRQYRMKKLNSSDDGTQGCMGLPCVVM

[2] = target: GDP-bound HRAS wild-type protein (Homo sapiens, UniProt P01112); assay: Binding to HRAS by surface plasmon resonance (SPR), Single Cycle Kinetics; conditions: KD ratio HRAS/KRAS, SPR
GDP-bound HRAS wild-type protein, sequence (P01112 whole entry): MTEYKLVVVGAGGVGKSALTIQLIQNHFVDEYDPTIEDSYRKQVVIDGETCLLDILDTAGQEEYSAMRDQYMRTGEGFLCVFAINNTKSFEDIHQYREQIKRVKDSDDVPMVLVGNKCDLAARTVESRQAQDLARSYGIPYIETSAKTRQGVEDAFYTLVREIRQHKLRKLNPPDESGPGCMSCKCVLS

| SMILES | NRAS/KRAS (ratio of KD value with respect to GDP-bound NRAS wild-type protein to KD value with respect to KRAS) [1] | HRAS/KRAS (ratio of KD value with respect to GDP-bound HRAS wild-type protein to KD value with respect to KRAS) [2] |
| --- | --- | --- |
| CC[C@H](C)[C@@H]1NC(=O)[C@H](CC(C)C)NC(=O)C[C@@H](C(=O)N2CCOCC2)N(C)C(=O)[C@H](C2CCCC2)N(C)C(=O)C2(CCCC2)NC(=O)[C@@H]2CCCN2C(=O)[C@H](CCc2cc(F)c(C(F)(F)F)c(F)c2)NC(=O)CN(C)C(=O)[C@H](Cc2ccc(C(F)(F)F)cc2)N2CCCCC[C@@H](C2=O)N(C)C(=O)CN(C)C1=O [PP0516] | B (a compound having 3 or more and less than 10 is denoted as B) | B (a compound having 3 or more and less than 10 is denoted as B) |
| CC[C@H](C)[C@@H]1NC(=O)[C@H](CC(F)(F)F)N(C)C(=O)C[C@@H](C(=O)N2CCOCC2)N(C)C(=O)[C@H](C2CCCC2)N(C)C(=O)C2(CCCC2)NC(=O)[C@@H]2CCCN2C(=O)[C@H](CCc2cc(F)c(C(F)(F)F)c(F)c2)NC(=O)CN(C)C(=O)[C@H](Cc2ccc(C(F)(F)F)cc2)N2CCCCC[C@@H](C2=O)N(C)C(=O)CN(C)C1=O [PP0520] | B (a compound having 3 or more and less than 10 is denoted as B) | B (a compound having 3 or more and less than 10 is denoted as B) |
| CC[C@H](C)[C@@H]1NC(=O)[C@@H]2CCCCCN2C(=O)C[C@@H](C(=O)N2CCOCC2)N(C)C(=O)[C@H](C2CCCC2)N(C)C(=O)C2(CCCC2)NC(=O)[C@@H]2CCCN2C(=O)[C@H](CCc2cc(F)c(C(F)(F)F)c(F)c2)NC(=O)CN(C)C(=O)[C@H](Cc2ccc(C(F)(F)F)cc2)N2CCCCC[C@@H](C2=O)N(C)C(=O)CN(C)C1=O [PP0521] | B (a compound having 3 or more and less than 10 is denoted as B) | B (a compound having 3 or more and less than 10 is denoted as B) |
| CC(C)C[C@H]1C(=O)N[C@@H](C2CCC2)C(=O)N(C)CC(=O)N(C)[C@H]2CCCCCN(C2=O)[C@@H](Cc2ccc(C(F)(F)F)cc2)C(=O)N(C)CC(=O)N[C@@H](CCc2cc(F)c(C(F)(F)F)c(F)c2)C(=O)N2CCC[C@H]2C(=O)NC2(CCCC2)C(=O)N(C)[C@@H](C2CCCC2)C(=O)N(C)[C@H](C(=O)N2CCOCC2)CC(=O)N1C [PP0522] | B (a compound having 3 or more and less than 10 is denoted as B) | B (a compound having 3 or more and less than 10 is denoted as B) |
| CCC(CC)[C@@H]1NC(=O)[C@H](CC(C)C)N(C)C(=O)C[C@@H](C(=O)N2CCOCC2)N(C)C(=O)[C@H](C2CCCC2)N(C)C(=O)C2(CCCC2)NC(=O)[C@@H]2CCCN2C(=O)[C@H](CCc2cc(F)c(C(F)(F)F)c(F)c2)NC(=O)CN(C)C(=O)[C@H](Cc2ccc(C(F)(F)F)cc2)N2CCCCC[C@@H](C2=O)N(C)C(=O)CN(C)C1=O [PP0523] | A (a compound having 10 or more and less than 20 is denoted as A) | B (a compound having 3 or more and less than 10 is denoted as B) |
| CC[C@H](C)[C@@H]1NC(=O)[C@H](CC(C)C)N(C)C(=O)C[C@@H](C(=O)N2CCOCC2)N(C)C(=O)[C@H](C2CCCC2)N(C)C(=O)C2(CCCC2)NC(=O)[C@@H]2CCCN2C(=O)[C@H](CCc2ccc(C(F)(F)F)c(Cl)c2)NC(=O)CN(C)C(=O)[C@H](Cc2ccc(C(F)(F)F)cc2)N(CCCF)C(=O)CN(C)C(=O)CN(C)C1=O [PP0524] ([NMeL]I[Sar][Sar][X47][Sar][hPhe(3-Cl-4-CF3)]P[Ac5c][NMeGly(cPent)][NMeD]-Morpholide; lactam N-11) | B (a compound having 3 or more and less than 10 is denoted as B) | C (A compound having a KD ratio of 0.1 or more and less than 3 is denoted as C) |

From US20250230193A1, “CYCLIC COMPOUND HAVING SELECTIVE KRAS INHIBITORY EFFECT ON HRAS AND NRAS” (CHUGAI SEIYAKU KABUSHIKI KAISHA, priority 2022, published 2025)
